Results as given in patent US20230148005A1, “MACROCYCLIC COMPOUNDS AND USES THEREOF” (THESEUS PHARMACEUTICALS, INC., priority 2020, published 2023).

Columns and labels:
Ba/F3 Parental = assay: Ba/F3 viability assay (CellTiter-Glo), parental; type: cell-based; settings: Mus musculus, BaF3, anti-proliferation
Outline: (§1)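 Compound effects on proliferation were gauged by measuring cell viability in each engineered line and in the parental line.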

Ba/F3 EGFR-Del19/T790M = Ba/F3 EGFR-Del19/T790M (Homo sapiens, UniProt P00533, T790M, cells depend on it, form not given); assay: Ba/F3 viability assay (CellTiter-Glo), DT; type: cell-based; settings: anti-proliferation, read-out: BaF3 DT IC50
Sequence of Ba/F3 EGFR-Del19/T790M (P00533 with tags, fused parts or gaps DEL746-750/T790M, form open): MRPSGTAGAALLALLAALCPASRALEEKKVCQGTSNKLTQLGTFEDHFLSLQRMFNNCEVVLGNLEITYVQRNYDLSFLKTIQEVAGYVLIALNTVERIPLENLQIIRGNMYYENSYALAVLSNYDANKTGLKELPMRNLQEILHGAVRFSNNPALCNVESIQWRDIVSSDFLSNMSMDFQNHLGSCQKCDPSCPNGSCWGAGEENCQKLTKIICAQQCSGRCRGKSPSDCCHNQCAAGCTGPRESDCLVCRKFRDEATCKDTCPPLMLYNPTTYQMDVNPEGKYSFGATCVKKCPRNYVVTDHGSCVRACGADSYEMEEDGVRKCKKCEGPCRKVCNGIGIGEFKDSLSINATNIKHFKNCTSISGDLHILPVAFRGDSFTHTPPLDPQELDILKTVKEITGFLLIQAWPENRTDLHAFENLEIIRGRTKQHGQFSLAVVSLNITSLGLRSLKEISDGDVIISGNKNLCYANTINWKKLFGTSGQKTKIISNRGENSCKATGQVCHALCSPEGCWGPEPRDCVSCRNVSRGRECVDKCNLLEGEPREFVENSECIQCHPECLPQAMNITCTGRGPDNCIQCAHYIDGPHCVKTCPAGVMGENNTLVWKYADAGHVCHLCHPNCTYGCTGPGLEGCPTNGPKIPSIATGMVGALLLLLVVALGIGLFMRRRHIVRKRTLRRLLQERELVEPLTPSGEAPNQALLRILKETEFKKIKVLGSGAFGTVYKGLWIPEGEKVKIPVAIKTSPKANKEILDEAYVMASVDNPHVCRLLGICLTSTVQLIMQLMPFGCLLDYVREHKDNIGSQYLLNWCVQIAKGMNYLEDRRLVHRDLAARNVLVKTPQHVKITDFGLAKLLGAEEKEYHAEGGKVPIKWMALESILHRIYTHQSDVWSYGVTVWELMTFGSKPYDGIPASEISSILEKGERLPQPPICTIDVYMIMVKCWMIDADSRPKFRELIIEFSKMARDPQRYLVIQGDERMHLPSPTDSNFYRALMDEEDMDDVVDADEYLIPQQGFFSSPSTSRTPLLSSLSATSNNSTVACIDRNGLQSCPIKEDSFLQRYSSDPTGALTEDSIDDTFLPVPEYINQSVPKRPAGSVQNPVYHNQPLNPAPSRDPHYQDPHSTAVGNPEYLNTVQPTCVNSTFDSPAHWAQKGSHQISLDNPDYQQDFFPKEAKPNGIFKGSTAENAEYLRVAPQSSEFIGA
Outline: as §1

EGFR^L858R = EGFR^L858R (Homo sapiens, UniProt P00533, L858R); assay: in vitro kinase assay (HTRF KinEASE-TK kit), L; type: biochemical; settings: kinase inhibition
Excerpt: (§2) Assays using an in vitro kinase assay kit (HTRF KinEASE-TK kit) can be used to study the inhibitory activity of compounds described herein with respect to EGFR mutants such as EGFR^L858R, EGFR^L58R/T790M, and EGFR^L858R/T790M/C^797S.

EGFR^L58R/T790M = EGFR^L58R/T790M (Homo sapiens, UniProt P00533, L858R/T790M); assay: in vitro kinase assay (HTRF KinEASE-TK kit), LT; type: biochemical; settings: kinase inhibition
Sequence of EGFR^L58R/T790M (P00533 25-1210 T790M/L858R): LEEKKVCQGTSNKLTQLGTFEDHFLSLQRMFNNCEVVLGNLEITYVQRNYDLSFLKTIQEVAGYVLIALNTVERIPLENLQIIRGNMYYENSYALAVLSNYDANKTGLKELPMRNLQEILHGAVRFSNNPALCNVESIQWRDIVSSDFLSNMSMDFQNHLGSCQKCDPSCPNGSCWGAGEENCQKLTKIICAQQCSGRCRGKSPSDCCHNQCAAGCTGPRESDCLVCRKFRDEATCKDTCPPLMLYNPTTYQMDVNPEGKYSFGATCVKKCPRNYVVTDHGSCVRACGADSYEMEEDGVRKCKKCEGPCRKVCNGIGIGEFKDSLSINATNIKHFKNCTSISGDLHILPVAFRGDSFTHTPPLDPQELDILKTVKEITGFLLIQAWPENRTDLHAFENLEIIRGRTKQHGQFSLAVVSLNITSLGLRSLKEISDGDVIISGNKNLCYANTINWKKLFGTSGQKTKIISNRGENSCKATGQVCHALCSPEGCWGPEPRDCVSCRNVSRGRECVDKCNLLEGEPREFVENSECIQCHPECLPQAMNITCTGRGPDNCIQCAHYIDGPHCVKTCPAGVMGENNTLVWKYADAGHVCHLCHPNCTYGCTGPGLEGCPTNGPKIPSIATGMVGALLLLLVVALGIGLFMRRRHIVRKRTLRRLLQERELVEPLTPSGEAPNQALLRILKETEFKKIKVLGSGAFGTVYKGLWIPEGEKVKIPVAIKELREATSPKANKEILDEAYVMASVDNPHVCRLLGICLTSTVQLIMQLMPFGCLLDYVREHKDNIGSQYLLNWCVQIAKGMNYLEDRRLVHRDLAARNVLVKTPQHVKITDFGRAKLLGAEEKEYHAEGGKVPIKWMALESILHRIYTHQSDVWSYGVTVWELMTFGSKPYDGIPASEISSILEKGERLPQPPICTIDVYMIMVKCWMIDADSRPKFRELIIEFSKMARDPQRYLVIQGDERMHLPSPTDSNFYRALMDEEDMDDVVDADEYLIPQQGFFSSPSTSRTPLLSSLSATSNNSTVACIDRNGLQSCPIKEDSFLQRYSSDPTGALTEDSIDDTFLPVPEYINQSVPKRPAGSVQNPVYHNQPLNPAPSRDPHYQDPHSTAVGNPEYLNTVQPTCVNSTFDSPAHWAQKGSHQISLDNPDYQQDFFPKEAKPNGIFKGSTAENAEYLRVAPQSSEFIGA
Excerpt: as §2

EGFR^L858R/T790M/C^797S = EGFR^L858R/T790M/C^797S (Homo sapiens, UniProt P00533, C797S/L858R/T790M); assay: in vitro kinase assay (HTRF KinEASE-TK kit), LTC; type: biochemical; settings: kinase inhibition
Sequence of EGFR^L858R/T790M/C^797S (P00533 25-1210 T790M/C797S/L858R): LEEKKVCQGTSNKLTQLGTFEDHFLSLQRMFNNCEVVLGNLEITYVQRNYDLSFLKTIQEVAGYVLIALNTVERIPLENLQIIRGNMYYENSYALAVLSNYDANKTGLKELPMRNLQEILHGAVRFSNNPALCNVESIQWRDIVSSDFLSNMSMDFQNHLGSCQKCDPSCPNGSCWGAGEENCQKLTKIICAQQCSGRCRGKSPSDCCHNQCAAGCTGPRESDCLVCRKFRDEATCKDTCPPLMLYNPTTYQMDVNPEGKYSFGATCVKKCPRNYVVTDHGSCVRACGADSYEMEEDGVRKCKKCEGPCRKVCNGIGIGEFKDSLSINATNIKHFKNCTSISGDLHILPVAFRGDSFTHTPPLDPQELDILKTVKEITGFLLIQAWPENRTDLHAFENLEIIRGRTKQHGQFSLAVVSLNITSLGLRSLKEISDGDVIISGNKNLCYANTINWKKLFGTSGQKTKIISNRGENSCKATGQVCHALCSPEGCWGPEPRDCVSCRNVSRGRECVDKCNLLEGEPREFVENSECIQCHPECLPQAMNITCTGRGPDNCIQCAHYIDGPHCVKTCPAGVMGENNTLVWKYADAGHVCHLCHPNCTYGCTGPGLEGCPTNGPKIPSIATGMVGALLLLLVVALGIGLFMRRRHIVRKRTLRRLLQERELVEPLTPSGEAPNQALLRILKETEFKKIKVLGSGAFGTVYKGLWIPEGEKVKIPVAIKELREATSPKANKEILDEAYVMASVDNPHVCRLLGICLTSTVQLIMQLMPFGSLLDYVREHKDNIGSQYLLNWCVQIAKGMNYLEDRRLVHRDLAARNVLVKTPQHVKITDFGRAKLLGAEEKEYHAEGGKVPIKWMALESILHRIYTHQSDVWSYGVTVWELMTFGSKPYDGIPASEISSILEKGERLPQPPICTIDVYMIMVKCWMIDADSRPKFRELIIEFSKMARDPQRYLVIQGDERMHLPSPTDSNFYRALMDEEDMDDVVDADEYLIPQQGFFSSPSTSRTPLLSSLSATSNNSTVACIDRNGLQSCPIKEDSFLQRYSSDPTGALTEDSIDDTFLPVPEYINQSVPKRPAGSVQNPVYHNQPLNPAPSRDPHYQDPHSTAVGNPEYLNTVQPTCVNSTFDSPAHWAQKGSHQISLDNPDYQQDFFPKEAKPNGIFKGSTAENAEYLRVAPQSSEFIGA
Excerpt: as §2

[1] = target: Ba/F3 EGFR-Del19/T790M/C797S (Homo sapiens, UniProt P00533, T790M/C797S, cells depend on it, form not given); assay: Ba/F3 viability assay (CellTiter-Glo), DTC; type: cell-based; settings: anti-proliferation, read-out: BaF3 DTC IC50
Sequence of Ba/F3 EGFR-Del19/T790M/C797S (P00533 with tags, fused parts or gaps DEL746-750/T790M/C797S, form open): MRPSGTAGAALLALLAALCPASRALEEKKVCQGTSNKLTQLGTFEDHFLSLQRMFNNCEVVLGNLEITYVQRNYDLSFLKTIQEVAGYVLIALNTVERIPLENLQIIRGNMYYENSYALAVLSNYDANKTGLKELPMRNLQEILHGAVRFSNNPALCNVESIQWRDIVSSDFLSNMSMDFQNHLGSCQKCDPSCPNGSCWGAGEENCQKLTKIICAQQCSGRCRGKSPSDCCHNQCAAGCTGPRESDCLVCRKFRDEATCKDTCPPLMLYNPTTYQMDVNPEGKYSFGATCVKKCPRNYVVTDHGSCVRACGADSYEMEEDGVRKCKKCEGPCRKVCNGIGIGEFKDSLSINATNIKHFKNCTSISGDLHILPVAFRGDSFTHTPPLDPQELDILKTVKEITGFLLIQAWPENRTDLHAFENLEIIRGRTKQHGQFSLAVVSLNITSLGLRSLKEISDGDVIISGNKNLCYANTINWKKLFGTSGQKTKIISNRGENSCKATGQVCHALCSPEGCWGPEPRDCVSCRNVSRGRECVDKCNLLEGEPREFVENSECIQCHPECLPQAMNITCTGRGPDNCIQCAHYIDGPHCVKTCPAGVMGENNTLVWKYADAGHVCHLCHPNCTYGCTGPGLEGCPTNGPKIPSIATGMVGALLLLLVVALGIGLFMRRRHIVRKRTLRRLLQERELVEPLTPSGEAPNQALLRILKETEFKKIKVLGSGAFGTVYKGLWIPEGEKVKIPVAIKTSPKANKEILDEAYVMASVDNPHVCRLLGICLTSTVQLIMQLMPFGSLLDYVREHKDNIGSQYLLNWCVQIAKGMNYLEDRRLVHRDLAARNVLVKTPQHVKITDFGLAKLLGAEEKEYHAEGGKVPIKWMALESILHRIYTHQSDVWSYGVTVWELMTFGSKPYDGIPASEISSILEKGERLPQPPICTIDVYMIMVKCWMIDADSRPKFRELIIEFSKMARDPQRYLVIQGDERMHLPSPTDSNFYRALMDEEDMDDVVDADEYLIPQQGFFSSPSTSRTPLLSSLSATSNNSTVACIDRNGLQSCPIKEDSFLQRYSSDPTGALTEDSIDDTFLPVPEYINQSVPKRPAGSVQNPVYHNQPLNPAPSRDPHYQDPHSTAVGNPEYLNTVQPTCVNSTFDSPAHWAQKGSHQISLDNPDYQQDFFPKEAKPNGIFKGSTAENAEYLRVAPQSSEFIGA
Outline: as §1

Ba/F3 EGFR-Del19/C797S = Ba/F3 EGFR-Del19/C797S (Homo sapiens, UniProt P00533, C797S, cells depend on it, form not given); assay: Ba/F3 viability assay (CellTiter-Glo), DC; type: cell-based; settings: anti-proliferation, read-out: BaF3 DC IC50
Outline: as §1

Row | Compound | IC50 (Ba/F3 Parental) | GI50 (Ba/F3 EGFR-Del19/T790M) | IC50 (EGFR^L858R) | IC50 (EGFR^L58R/T790M) | IC50 (EGFR^L858R/T790M/C^797S) | GI50 [1] | GI50 (Ba/F3 EGFR-Del19/C797S)
1 | CCN1CCc2c(cc(-c3nn4c5cc(ncc35)Nc3ccnc(n3)-c3cnn(C)c3OCC[C@@H]4C)n2C)C1C (some centres unmarked) [(161)] | 0.1 to 1 µM | < 0.01 µM | < 0.01 µM | < 0.01 µM | < 0.01 µM | < 0.01 µM | 0.01 to 0.1 µM
2 | CC1CCOc2c(cnn2C)-c2nccc(n2)Nc2cc3c(cn2)c(N2CCC2)nn31 (centres unmarked) [(33), 17-(azetidin-1-yl)-20,27-dimethyl-30-oxa-21,22,23,24,25,26,27,28-octazapentacyclopentacosa-2,4(14),5(22),6(23),12(24),13(15),16(18),17(25),19(21)-nonaene] | ≥ 1 µM | 0.01 to 0.1 µM | 0.01 to 0.1 µM | < 0.01 µM | < 0.01 µM | 0.01 to 0.1 µM | 0.01 to 0.1 µM
3 | C[C@H]1CCOc2c(cnn2C)-c2nccc(n2)Nc2cc3c(cn2)c(-c2cc(F)cc(OCCN(C)C)c2)nn31 [(129)] | 0.1 to 1 µM | 0.01 to 0.1 µM | 0.01 to 0.1 µM | < 0.01 µM | < 0.01 µM | 0.01 to 0.1 µM | 0.01 to 0.1 µM
4 | C[C@H]1CCOc2c(cnn2C)-c2nccc(n2)Nc2cc3c(cn2)c(-c2cc(CN(C)C)ccn2)nn31 [(183)] | 0.1 to 1 µM | 0.01 to 0.1 µM | < 0.01 µM | < 0.01 µM | < 0.01 µM | < 0.01 µM | 0.01 to 0.1 µM
5 | C[C@H]1CCOc2c(cnn2C)-c2nccc(n2)Nc2cc3c(cn2)c(-c2cnc(CN4CCN(C)CC4)s2)nn31 [(106)] | 0.1 to 1 µM | 0.01 to 0.1 µM | < 0.01 µM | < 0.01 µM | < 0.01 µM | 0.01 to 0.1 µM | < 0.01 µM
6 | C[C@H]1CCOc2c(cnn2C)-c2nccc(n2)Nc2cc3c(cn2)c(-c2cn(C)cn2)nn31 [(114)] | 0.1 to 1 µM | 0.01 to 0.1 µM | 0.01 to 0.1 µM | < 0.01 µM | < 0.01 µM | 0.01 to 0.1 µM | 0.01 to 0.1 µM
7 | Cn1ncc2c1OCCCn1nc(N3CCCC3CO)c3cnc(cc31)Nc1ccnc-2n1 (centres unmarked) [(62)] | 0.1 to 1 µM | 0.1 to 1 µM | 0.1 to 1 µM | < 0.01 µM | < 0.01 µM | 0.1 to 1 µM | 0.1 to 1 µM
8 | CCN(CC)CCOc1cc(-c2nn3c4cc(ncc24)Nc2ccnc(n2)-c2cnn(C)c2OCC[C@@H]3C)ccc1Cl [(153)] | 0.1 to 1 µM | 0.01 to 0.1 µM | < 0.01 µM | < 0.01 µM | < 0.01 µM | 0.01 to 0.1 µM | 0.01 to 0.1 µM
9 | CCCN1CCN(Cc2cnc(-c3nn4c5cc(ncc35)Nc3ccnc(n3)-c3cnn(C)c3OCC[C@@H]4C)s2)CC1 [(142)] | 0.1 to 1 µM | 0.01 to 0.1 µM | < 0.01 µM | < 0.01 µM | < 0.01 µM | < 0.01 µM | 0.01 to 0.1 µM
10 | CC1CCCOc2c(cnn2C)-c2nccc(n2)Nc2cc3c(cn2)c(-c2ccnn2C)nn31 (centres unmarked) [(75)] | 0.1 to 1 µM | 0.01 to 0.1 µM | 0.01 to 0.1 µM | < 0.01 µM | < 0.01 µM | 0.01 to 0.1 µM | 0.01 to 0.1 µM
11 | C[C@H]1CCOc2c(cnn2C)-c2nccc(n2)Nc2cc3c(cn2)c(-c2cnn(CCN4CCOCC4)c2)nn31 [(116)] | 0.1 to 1 µM | 0.01 to 0.1 µM | 0.01 to 0.1 µM | < 0.01 µM | < 0.01 µM | 0.01 to 0.1 µM | 0.01 to 0.1 µM
12 | CCn1cc(C(=O)N2CCN(C)CC2)cc1-c1nn2c3cc(ncc13)Nc1ccnc(n1)-c1cnn(C)c1OCCC2C (centres unmarked) [(88)] | 0.1 to 1 µM | 0.1 to 1 µM | 0.01 to 0.1 µM | < 0.01 µM | < 0.01 µM | 0.1 to 1 µM | 0.1 to 1 µM
13 | CC(C)N1CCN(Cc2ccc(-c3nn4c5cc(ncc35)Nc3ccnc(n3)-c3cnn(C)c3OCC[C@@H]4C)n2C)CC1 [(122)] | 0.1 to 1 µM | < 0.01 µM | < 0.01 µM | < 0.01 µM | < 0.01 µM | < 0.01 µM | < 0.01 µM
14 | CCCN1CCN(Cc2ccc(-c3nn4c5cc(ncc35)Nc3ccnc(n3)-c3cnn(C)c3OCC[C@@H]4C)n2C)CC1 [(135)] | 0.1 to 1 µM | < 0.01 µM | < 0.01 µM | < 0.01 µM | < 0.01 µM | < 0.01 µM | < 0.01 µM
15 | CC(C)n1ncc2c1OCCCC(C)n1nc(N3CCC3)c3cnc(cc31)Nc1ccnc-2n1 (centres unmarked) [(74)] | ≥ 1 µM | 0.1 to 1 µM | 0.1 to 1 µM | < 0.01 µM | < 0.01 µM | 0.1 to 1 µM | 0.1 to 1 µM
16 | C[C@H]1CCOc2c(cnn2C)-c2nccc(n2)Nc2cc3c(cn2)c(-c2cc(CN4CCOCC4)n(C)c2)nn31 [(139)] | 0.1 to 1 µM | < 0.01 µM | < 0.01 µM | < 0.01 µM | < 0.01 µM | < 0.01 µM | < 0.01 µM
17 | C[C@H]1CCOc2c(cnn2C)-c2nccc(n2)Nc2cc3c(cn2)c(-c2cccc(N4CC[C@H](N(C)C)C4)c2)nn31 [(167)] | 0.1 to 1 µM | < 0.01 µM | < 0.01 µM | < 0.01 µM | < 0.01 µM | < 0.01 µM | < 0.01 µM
18 | C[C@H]1CCOc2c(cnn2C)-c2nccc(n2)Nc2cc3c(cn2)c(-c2ccc(F)c(OCCN4CCOCC4)c2)nn31 [(154)] | 0.1 to 1 µM | 0.01 to 0.1 µM | < 0.01 µM | < 0.01 µM | < 0.01 µM | < 0.01 µM | 0.01 to 0.1 µM
19 | Cc1nc(-c2nn3c4cc(ncc24)Nc2ccnc(n2)-c2cnn(C)c2OCC[C@@H]3C)sc1CN(C)C [(171)] | 0.1 to 1 µM | 0.01 to 0.1 µM | < 0.01 µM | < 0.01 µM | < 0.01 µM | 0.01 to 0.1 µM | 0.01 to 0.1 µM
20 | COCCN(C)Cc1ccc(-c2nn3c4cc(ncc24)Nc2ccnc(n2)-c2cnn(C)c2OCC[C@@H]3C)n1C [(136)] | 0.1 to 1 µM | < 0.01 µM | < 0.01 µM | < 0.01 µM | < 0.01 µM | < 0.01 µM | < 0.01 µM
21 | C[C@H]1CCOc2c(cnn2C)-c2nccc(n2)Nc2cc3c(cn2)c(-c2cccc(CN4CCN(C)CC4)c2)nn31 [(98)] | 0.1 to 1 µM | 0.01 to 0.1 µM | < 0.01 µM | < 0.01 µM | < 0.01 µM | 0.01 to 0.1 µM | 0.01 to 0.1 µM
22 | CC(C)N(C)Cc1ccc(-c2nn3c4cc(ncc24)Nc2ccnc(n2)-c2cnn(C)c2OCC[C@@H]3C)n1C [(189)] | 0.1 to 1 µM | < 0.01 µM | < 0.01 µM | < 0.01 µM | < 0.01 µM | < 0.01 µM | < 0.01 µM
23 | CC1CCCOc2c(cnn2C)-c2nccc(n2)Nc2cc3c(cn2)c(-c2nnc(CN4CCN(C)CC4)o2)nn31 (centres unmarked) [(94)] | ≥ 1 µM | 0.1 to 1 µM | 0.1 to 1 µM | < 0.01 µM | < 0.01 µM | 0.1 to 1 µM | 0.1 to 1 µM
